Source: patent US7446127B2, “Chroman carboxylic acid derivatives for the treatment of diabetes and lipid disorders” (SK Holdings Co, Ltd., priority 2003, dated 2008)

Key:
[1] = tested on: differentiated 3T3-L1 adipocytes; assay: Glucose transport assay (2-deoxy-D-glucose uptake); type: cell-based; conditions: 48 hr; for Fold Stimulation (50 μM) of 2-deoxy-D-glucose uptake, Insulin + Compound: 50 μM compound + 100 nM insulin; for fold induction at 50 µM: Mus musculus, 50 μM compound alone, read-out: Fold Stimulation (50 μM) of 2-deoxy-D-glucose uptake, Compound only
Description: 3T3-L1 fibroblasts (American Type Culture Collection) were plated and grown for 2 days postconfluence in Dulbecco's modified Eagle's medium (DMEM; 4,500 mg/L glucose, HyClone) supplemented 10% FBS, 10 μg/mL penicillin and streptomycin in an atmosphere of 5% CO2 at 37° C. Adipocyte differentiation was then induced using standard protocol. After 48 hr, the differentiation medium was replaced with maintenance medium containing DMEM supplemented with 10% FBS. The maintenance medium was changed every 3 days until the cells were utilized for experimentation. Glucose transport activity was measured in the presence or absence of insulin and the protocol was modified from Kletzien, R F et al. (1992) Molecular Pharmacology 41:393-398. Briefly, differentiated 3T3-L1 adipocytes were incubated with vehicle (DMSO), insulin (100 nM) alone, test compound (50 μM) alone and a combination of insulin (100 nM)+test compound (50 μM) for 48 hr. Medium was changed twice a day in the presence of compound. Glucose uptake was measured using 2-Deoxy-D-[1−^3H] glucose as label after 90 min incubation with each compound. […] In the series of compounds, one of the best result was obtained with 7-[2-(5-methyl-2-phenyl-4-oxazolyl)-ethoxy]-chroman-3-carboxylic acid (Example 1).

db/db mice [2] = assay: Efficacy test for blood glucose lowering (db/db mice); type: in vivo; conditions: 30 mg/kg/d oral
Description: (§1) Mice used in this study were standard model of type II diabetes developed by Jackson Laboratories (Bar Harbor, Me.). Male, 8-week-old db/db mice were housed six per cage in hanging wire bottom cages with standard laboratory conditions. The mice had free access to normal chow (Purina Rodent Chow) and water. At the age of 11-12 weeks, mice were bled in the tail for glucose matching among the groups (n=6 per group). The grouped mice were then dosed orally with vehicle (CMC) or with compounds of formula I (30 mg/kg/d) for 7 days. Compound of formula I at 30 mg/kg/d was dosed as suspension in 0.5% CMC+0.2% Tween 80 in H2O. Fresh suspension was prepared for 8 days dosing and kept in a refrigerator. The suspension was administered by oral gavage daily in the morning. The control group received vehicle (dose 10 mL/kg). Blood glucose concentrations were monitored at basal and 3 hr post dose on day 4 and 8. For blood sampling, mice were placed in a restrainer and drop of blood was obtained by nick in the tip of the tail. Blood glucose concentrations were determined either by putting a drop of blood on a glucose strip for analysis by a glucometer or using a 10 μL plasma sample in a YSI (Yellow Spring Instruments, OH) analyzer. Results are expressed as absolute blood glucose concentrations (mg/dL) and % reduction that is achieved reduction relative to vehicle treated control group. Animals having more than 300 mg/dL of blood glucose were used for testing. Statistical significance (p<0.05) is given versus the appropriate sample in vehicle treated animals. On day 7, the mice were fasted overnight for 18 hrs and were bled in the tail for the glucose level checking then dosed with the testing compounds (30 mg/kg/d). After 2 hr, blood samples were taken and the rats were dosed with 10% glucose in water (10 ml/kg) orally and blood glucose was monitored at 15, 30, 60, 90 and 120 min after dosing. The blood samples were centrifuged and plasma samples were collected and analyzed for insulin, Tg and FFA.

db/db mice [3] = assay: Oral Glucose Tolerance Test (OGTT) in db/db mice; type: in vivo; conditions: 30 mg/kg/d for 9 days
Description: as §1, with “FFA. An Oral Glucose Tolerance Test (OGTT) was performed both in db/db mice and in high fat (HF) rats after dosing 30 mg/kg/d of compounds of Examples 1 and 2 for 9 days. For OGTT and ITT studies, Sprague-Dawley rats were prepared by feeding high fat (HF) diet (60% calorie from fat) for 6 weeks. Before the study, they were matched into groups on the basis of blood glucose levels.” for “FFA.”

high fat (HF) rats = assay: Oral Glucose Tolerance Test (OGTT) in high fat (HF) rats; type: in vivo, Sprague-Dawley rats; conditions: 30 mg/kg/d for 9 days
Description: (§2) An Oral Glucose Tolerance Test (OGTT) was performed both in db/db mice and in high fat (HF) rats after dosing 30 mg/kg/d of compounds of Examples 1 and 2 for 9 days. For OGTT and ITT studies, Sprague-Dawley rats were prepared by feeding high fat (HF) diet (60% calorie from fat) for 6 weeks. Before the study, they were matched into groups on the basis of blood glucose levels.

HF rat = assay: Insulin tolerance test (ITT) in HF rat; type: in vivo, Sprague-Dawley rats; conditions: 30 mg/kg oral, insulin 0.25 U/kg i.p. 2 hr later
Description: as §2, with “levels. Insulin tolerance test (ITT) was performed in HF rat which were prepared in the same manner with OGTT test animal. On the day of the study, rats were orally dosed with the testing compounds (30 mg/kg) and 2 hr later, rats were dosed with insulin (0.25 U/kg, i.p.) in 0.1% BSA solution in saline. Blood glucose of the rat was measured at 15, 30, 60, 120 min after dose.” for “levels.”

STZ rat = assay: Blood glucose lowering effect in STZ rat; type: in vivo; conditions: STZ rat (data not shown)
[4] = Solubility in dosing vehicle; type: physicochemical
Source text: It appeared that compounds of Examples 1 and 2 were not soluble in 0.5% CMC vehicle.

SMILES	Fold Stimulation (50 μM) of 2-deoxy-D-glucose uptake, Insulin + Compound [1]	fold induction at 50 µM [1]	further results
Cc1oc(-c2ccc(-c3ccccc3)cc2)nc1CCOc1ccc2c(c1)OCC(C(=O)O)C2 (stereo not shown) [Example 2, 7-[2-(5-Methyl-2-(4-phenyl)phenyl-4-oxazolyl)ethoxy]chromane-3-carboxylic acid]	6.4 fold	1.5	Fatty acid % reduction (db/db mice [2]; plasma): −21.1%; Insulin % reduction (db/db mice [2]; plasma): −72.7%; Glucose Max % efficacy (db/db mice [2]; suspension in 0.5% CMC + 0.2% Tween 80): 70.3%; Glucose Observed value (db/db mice [2]; suspension in 0.5% CMC + 0.2% Tween 80, control 261.2): 148.3 mg/dL; AUC of Glucose in db/db, % reduction (db/db mice [3]): 14.0%; AUC of Glucose in db/db, Observed value (db/db mice [3]; control 40858): 32406 mg/dl × 120 min; AUC of Glucose in high fat rat, % reduction (high fat (HF) rats): 10.1%; AUC of Glucose in high fat rat, Observed value (high fat (HF) rats; control 14053): 12631 mg/dl × 120 min; AUC of Glucose in high fat rat, % reduction (HF rat): 4.2%; AUC of Glucose in high fat rat, Observed value (HF rat; control 13359): 12796 mg/dl × 120 min; blood glucose lowering effect (STZ rat): did not reduce blood glucose; solubility in 0.5% CMC vehicle [4]: not soluble
Cc1oc(-c2ccc(F)cc2)nc1CCOc1ccc2c(c1)OCC(C(=O)O)C2 (stereo not shown) [Example 3]	5.9 fold	1.3	
Cc1oc(-c2cccs2)nc1CCOc1ccc2c(c1)OCC(C(=O)O)C2 (stereo not shown) [Example 4, 7-[2-(5-methyl-2-thien-2-yl-1,3-oxazol-4-yl)ethoxy]chromane-3-carboxylic acid]	7.6 fold	1.5	
O=C(O)C1COc2cc(OCCc3nc(-c4ccccc4)oc3-c3ccccc3)ccc2C1 (stereo not shown) [Example 5]	8.1 fold	1.7	
Cc1oc(-c2ccccc2)nc1COc1ccc2c(c1)OCC(C(=O)O)C2 (stereo not shown) [Example 6, 7-[(2-phenyl-5-methyl-1,3-oxazol-4-yl)methoxy]chromane-3-carboxylic acid]	10.7 fold	1.4	
Cc1oc(-c2ccccc2)nc1CCCOc1ccc2c(c1)OCC(C(=O)O)C2 (stereo not shown) [Example 7, 7-[3-(5-Methyl-2-phenyl-4-oxazolyl)propoxy]chromane-3-carboxylic acid]	6.5 fold	1.4	
Cc1oc(-c2ccccc2)nc1CCOc1ccc2c(c1)OCC(C(=O)NS(=O)(=O)c1ccccc1)C2 (stereo not shown) [Example 8]	8.8 fold	1.5	
Cc1oc(-c2ccccc2)nc1CCOc1ccc2c(c1)OCC(C(=O)NS(C)(=O)=O)C2 (stereo not shown) [Example 9]	6.2 fold	1.2	
Cc1oc(-c2ccc(Br)cc2)nc1COc1ccc2c(c1)OCC(C(=O)O)C2 (stereo not shown) [Example 10, 7-[(2-(4-bromophenyl)-5-methyl-1,3-oxazol-4-yl)methoxy]chromane-3-carboxylic acid]	5.1 fold	1	
Cc1oc(-c2ccc(-c3ccccc3)cc2)nc1COc1ccc2c(c1)OCC(C(=O)O)C2 (stereo not shown) [Example 11]	4.6 fold	1.3	
COC(=O)C1COc2cc(OCCc3nc(-c4ccccc4)oc3C)ccc2C1 (stereo not shown) [Example 12, Methyl 7-[2-(5-Methyl-2-phenyl-4-oxazolyl)ethoxy]chromane-3-carboxylate]	6.0 fold	1.1	
Cc1oc(-c2ccccc2)nc1CCOc1ccc2c(c1)OCC(C(N)=O)C2 (stereo not shown) [Example 13, 7-[2-(5-Methyl-2-phenyl-4-oxazolyl)ethoxy]chromane-3-carboxylic acid amide]	8.8 fold	1.7	
Cc1oc(-c2ccccc2)nc1CCOc1ccc2c(c1)OCC(CC(=O)O)C2 (stereo not shown) [Example 14, {7-[2-(5-Methyl-2-phenyl-oxazol-4-yl)-ethoxy]-chroman-3-yl}-acetic acid]	6.9 fold	1.4	
CCc1ccc(CCOc2ccc(CC3SC(=O)NC3=O)cc2)nc1 (stereo not shown) [Pioglitazone, reference compound]	7.6 fold	1.9	
